The values that follow come from publication PMC5775417 (Scientific Reports, 2018).

Where “and” joins values, the source holds several entries; their conditions need not be identical. Identical values can stand only once. Entries after “also recorded” stand apart in the source; their conditions may differ. Like-named read-outs stand apart in the source and are kept apart here.

Assay [1] concerns the target T1, D80^2.50A c-myc-D2LR (Homo sapiens, UniProt P14416, D80A).
T1 construct: expressed in transfected cells
As to the kind of experiment: [3H]spiperone competition binding, membranes of Flp-In CHO cells. The conditions noted are these: for Ki / logα (logarithm of the cooperativity factor between the modulator and [3H]spiperone) / α (cooperativity factor with [3H]spiperone) / Kb: D80A; for Ki: 100 µM GppNHp; for Kb: allosteric ternary complex model. Here is the method: (§1) Flp-In CHO cells (Invitrogen) were transfected with the pOG44 vector encoding Flp recombinase and the pDEST vector encoding the wild-type or mutant c-Myc-D2LR at a ratio of 9:1 using polyethylenimine (Polysciences, Warrington, PA) as transfection reagent. 24 hours after transfection the cells were subcultured and the medium was supplemented with 700 μg/ml hygromycin B as selection agent to obtain cells stably expressing the c-Myc-D2LR. FlpIn CHO cells stably expressing the wild-type or mutant c-Myc-D2LR were grown in Dulbecco’s modified Eagle’s medium (DMEM) supplemented with 10% fetal bovine serum and 200 µg/mL of Hygromycin-B, and maintained at 37 °C in a humidified incubator containing 5% CO2. When cells were approximately 90% confluent, they were harvested and centrifuged (300 g, 3 min, 4 °C). The resulting pellet was resuspended in assay buffer either in the presence (20 mM HEPES, 100 mM NaCl, 6 mM MgCl2, 1 mM EGTA, and 1 mM EDTA, pH 7.4) or absence (20 mM HEPES, 100 mM NMDG, 6 mM MgCl2, 1 mM EGTA, and 1 mM EDTA, pH 7.4) of sodium ions. The centrifugation procedure was repeated. The intact cell pellet was then resuspended in assay buffer and homogenized using a Polytron homogenizer for three 10 s intervals on the maximum setting, with 30 s periods on ice between each burst. The homogenate volume was brought up to 30 mL, the sample was centrifuged (350 g, 5 min, 4 °C), the pellet was discarded, and the supernatant was centrifuged at 30 000 g for 1 hr at 4 °C. The resulting pellet was resuspended in 5 mL of assay buffer, and the protein content was determined using the bicinchoninic acid assay (BCA assay). The homogenate was then separated into 500 µl aliquots and stored at −80 °C until it was required for binding assays.
(§2) Binding was terminated by fast-flow filtration over GF/B membranes using a Brandel harvester followed by three washes with ice-cold 0.9% NaCl. Bound radioactivity was measured in a Tri-Carb 2900TR liquid scintillation counter (PerkinElmer).
(§3) Values of α > 1 denote positive cooperativity, values < 1 (but > 0) denote negative cooperativity and values = 1 denote neutral cooperativity.
(§4) IC50 values obtained from the inhibition curves were converted to Ki values using the Cheng and Prusoff equation[35].

For assay [2], the target named is T2, E95^2.65A c-myc-D2LR (Homo sapiens, UniProt P14416, E95A).
T2 construct: expressed in transfected cells
The assay is described as above. The settings on record: for fold decrease in affinity at E95A mutant in the absence of Na+ vs E95A in the presence of Na+: 100 mM NMDG vs 100 mM NaCl; for Ki / α (cooperativity factor with [3H]spiperone) / logα (logarithm of the cooperativity factor between the modulator and [3H]spiperone) / Kb: E95A; for Ki: 100 µM GppNHp; for Kb: allosteric ternary complex model. On the procedure: as §1, §2, §3, §4

The target in assay [3] is T3, WT c-myc-D2LR (Homo sapiens, UniProt P14416).
T3 construct: expressed in transfected cells
The description is as above. The conditions noted are these: for fold loss in affinity in the absence of Na+ vs presence of Na+: WT D2LR, 100 mM NMDG vs 100 mM NaCl; for Ki / α (cooperativity factor with [3H]spiperone) / logα (logarithm of the cooperativity factor between the modulator and [3H]spiperone) / Kb: WT. Here is the method:
as §1, §2, §3, §4

Assay [4] relates to D2R Tyr^7.43 to cysteine mutant. The conditions noted are these: cited from earlier work.
Setting [5] is: 100 mM NaCl, 0.15 nM [3H]spiperone, read-out: Ki (converted).
Where [6] appears, read: 100 mM NaCl, 0.15 nM [3H]spiperone, read-out: pKi (converted).
[7] abbreviates: 100 mM NMDG (no Na+), 0.15 nM [3H]spiperone, read-out: Ki (converted).
The mark [8] stands for this setting: 100 mM NMDG (no Na+), 0.15 nM [3H]spiperone, 100 µM GppNHp, read-out: pKi (converted).
Setting [9] is: 100 mM NaCl, 0.15 nM [3H]spiperone, 100 µM GppNHp, read-out: pKi (converted).
The mark [10] stands for this setting: 100 mM NMDG (no Na+), 0.15 nM [3H]spiperone.
Setting [11] is: 100 mM NaCl, 0.15 nM [3H]spiperone.
Setting [12] is: 100 mM NMDG (no Na+), 0.15 nM [3H]spiperone, ND = no inhibition of [3H]spiperone binding detected.
Where [13] appears, read: 100 mM NaCl, 0.5 nM [3H]spiperone.
Setting [14] is: 100 mM NMDG (no Na+), 0.5 nM [3H]spiperone.

T3 sequence (P14416 whole entry): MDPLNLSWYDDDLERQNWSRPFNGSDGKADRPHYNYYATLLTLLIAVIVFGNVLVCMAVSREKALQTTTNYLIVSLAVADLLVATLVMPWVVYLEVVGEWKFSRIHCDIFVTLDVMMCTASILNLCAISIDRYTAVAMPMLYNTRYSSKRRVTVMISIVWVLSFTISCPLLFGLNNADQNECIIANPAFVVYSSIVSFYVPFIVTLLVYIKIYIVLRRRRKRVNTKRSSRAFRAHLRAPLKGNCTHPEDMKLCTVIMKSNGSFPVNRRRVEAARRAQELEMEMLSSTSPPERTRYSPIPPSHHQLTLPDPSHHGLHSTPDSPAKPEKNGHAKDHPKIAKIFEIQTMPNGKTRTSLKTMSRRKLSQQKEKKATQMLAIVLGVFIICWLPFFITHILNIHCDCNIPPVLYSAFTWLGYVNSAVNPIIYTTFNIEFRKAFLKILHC
T1 sequence (P14416 whole entry D80A): as the sequence (P14416 whole entry) above, with D80A counted along it
T2 sequence (P14416 whole entry E95A): as the sequence (P14416 whole entry) above, with E95A counted along it

With `CC(=O)N[C@H]1CC[C@H](CCN2CCc3ccc(C#N)cc3C2)CC1` [MIPS1059, N-((trans)-4-(2-(7-cyano-3,4-dihydroisoquinolin-2(1H)yl)ethyl)cyclohexyl)acetamide], the “fold loss in affinity at D80A mutant vs WT” value in assay [1] (100 mM NaCl) was 5 fold. Besides, the Ki in assay [1] (100 mM NMDG (no Na+), 0.15 nM [3H]spiperone, read-out: pKi (converted)) is 1480 nM; in assay [1] (setting [5]) it was 1500 nM; in assay [1] (setting [6]) it was 1510 nM; in assay [2] (setting [7]), 4800 nM; in assay [2] (setting [5]), 1200 nM; in assay [2] (setting [6]), 1150 nM. For the same compound, the Ki in assay [3] (setting [8]) is 1740 nM; in assay [3] (setting [9]), 275 nM; in assay [3] (100 mM NaCl, complete displacement of [3H]spiperone, read-out: Ki), 275 nM. Also, the “fold by which the WT vs E95A difference in affinity is greater in the presence of Na+ than in the absence of Na+” value (“fold by which the WT vs E95A difference” for short) in assay [2] was 2 fold. The “fold decrease in affinity at E95A mutant in the absence of Na+ vs E95A in the presence of Na+” value (from here on “fold decrease in affinity at E95A mutant”) in assay [2] was determined as 5 fold. Moreover, the “fold loss in affinity at E95A mutant vs WT” value in assay [2] (absence of Na+ (100 mM NMDG)) is on record as 3 fold; in assay [2] (presence of Na+ (100 mM NaCl)), 5 fold. In assay [3], the “fold loss in affinity in the absence of Na+ vs presence of Na+” value (shortened to “fold loss in affinity in the absence”) stood at 6 fold.

As to `CCCN1CCc2ccc(C#N)cc2C1` [MIPS1071, 2-propyl-1,2,3,4-tetrahydroisoquinoline-7-carbonitrile], the “fold loss in affinity at D80A mutant vs WT” value in assay [1] (100 mM NaCl) was found to be 7 fold. Also, the Ki in assay [1] (setting [7]) was 7200 nM; in assay [1] (setting [5]), 9300 nM; in assay [2] (setting [7]) it was 7600 nM; in assay [2] (setting [6]), 1260 nM; in assay [3] (setting [8]), 12000 nM; in assay [3] (setting [9]) it was 1260 nM. For the same compound, the “fold loss in affinity at E95A mutant vs WT” value in assay [2] (absence of Na+ (100 mM NMDG)) and in assay [2] (presence of Na+ (100 mM NaCl)) was “not changed” in each case. For the same compound, in assay [3], the “fold loss in affinity in the absence” value came to 9 fold.

Consider `N#Cc1ccc2c(c1)CN(CC[C@H]1CC[C@H](NC(=O)c3cc4cccc(F)c4[nH]3)CC1)CC2` [MIPS1868], for which the “fold loss in affinity at D80A mutant vs WT” value in assay [1] (100 mM NaCl) was 6 fold. Also, the “logα (logarithm of the cooperativity factor between the modulator and [3H]spiperone)” value is on record as −0.87 ± 0.12 in assay [1] (setting [10]); −0.62 ± 0.06 in assay [1] (100 mM NaCl, 0.15 nM [3H]spiperone, ND = no inhibition of [3H]spiperone binding detected); −1.24 ± 0.16 in assay [2] (setting [12]); −1.39 ± 0.11 in assay [2] (setting [11]); −1.48 ± 0.12 in assay [3] (setting [12]); −1.45 ± 0.12 in assay [3] (setting [11]). Moreover, the “α (cooperativity factor with [3H]spiperone)” value was found to be 0.13 in assay [1] (setting [10]); 0.23 in assay [1] (setting [11]); 0.06 in assay [2] (setting [10]); 0.04 in assay [2] (setting [11]); 0.03 in assay [3] (setting [10]); 0.04 in assay [3] (setting [11]). Moreover, the Kb in assay [1] (setting [10]) is 468 nM; in assay [1] (setting [11]), 631 nM; in assay [2] (setting [10]) it was 617 nM; in assay [2] (setting [11]), 212 nM; in assay [3] (100 mM NMDG (no Na+), allosteric ternary complex model, 0.15 nM [3H]spiperone, read-out: KB (converted)), 631 nM; in assay [3] (100 mM NaCl, allosteric ternary complex model, 0.15 nM [3H]spiperone, read-out: KB (converted)), 100 nM. Also, the “fold loss of negative cooperativity at D80A mutant vs WT” value in assay [1] (cooperativity with [3H]spiperone) is 4 fold and 6 fold. Also, the “fold by which the WT vs E95A difference” value in assay [2] amounted to 2 fold. Further, the “fold decrease in affinity at E95A mutant” value in assay [2] was 3 fold. The figures for the “fold loss in affinity at E95A mutant vs WT” value in assay [2] (absence of Na+ (100 mM NMDG)) and in assay [2] (presence of Na+ (100 mM NaCl)) were “no significant difference; also recorded: no additional effect” and 2 fold, respectively. Also, the “fold loss in affinity in the absence” value in assay [3] is 6 fold and 5 fold.

Consider `CCN1CCCC1CNC(=O)c1cc(S(N)(=O)=O)ccc1OC` (stereo not shown) [sulpiride], for which, in assay [4], the “fold decrease in affinity upon mutation of Tyr^7.43 to cysteine” value was 185 fold.

As for `N#Cc1ccc2c(c1)CN(CC[C@H]1CC[C@H](NC(=O)c3cc4ccncc4[nH]3)CC1)CC2` [MIPS1726], the “fold loss in affinity at D80A mutant vs WT” value in assay [1] (100 mM NaCl) is listed as above 10 fold. Further, the “logα (logarithm of the cooperativity factor between the modulator and [3H]spiperone)” value was −2.13 ± 0.27 in assay [1] (setting [13]); −1.89 ± 0.31 in assay [2] (setting [14]); −1.91 ± 0.12 in assay [2] (setting [13]); −2.26 ± 0.39 in assay [3] (setting [14]); −1.90 ± 0.08 in assay [3] (setting [13]). Also, the “α (cooperativity factor with [3H]spiperone)” value in assay [1] (setting [13]) was found to be 0.007; in assay [2] (setting [14]) it was 0.01; in assay [2] (setting [13]) it was 0.01; in assay [3] (setting [14]), 0.005; in assay [3] (setting [13]), 0.01. Besides, the Kb is 316 nM in assay [1] (setting [13]); 812 nM in assay [2] (setting [14]); 123 nM in assay [2] (setting [13]); 9.77 nM in assay [3] (0.15 nM [3H]spiperone, radioligand completely displaced, read-out: pKB (converted)); 398 nM in assay [3] (100 mM NMDG (no Na+), allosteric ternary complex model, 0.5 nM [3H]spiperone, read-out: KB (converted)); 30 nM and 30.2 nM in assay [3] (100 mM NaCl, allosteric ternary complex model, 0.5 nM [3H]spiperone, read-out: KB (converted)). In addition, the “fold by which the WT vs E95A difference” value in assay [2] was 2 fold. Besides, the “fold decrease in affinity at E95A mutant” value in assay [2] is on record as 7 fold. Also, the “fold loss in affinity at E95A mutant vs WT” value in assay [2] (absence of Na+ (100 mM NMDG)) turned out to be 2 fold; in assay [2] (presence of Na+ (100 mM NaCl)), 4 fold.

For the compound `CN1CN(c2ccccc2)C2(CCN(CCCC(=O)c3ccc(F)cc3)CC2)C1=O` [N-methyl-spiperone], the “fold decrease in affinity upon mutation of Tyr^7.43 to cysteine” value in assay [4] was 3 fold.
